Measurements taken from patent US8722665B2, “Cinnamido-pyrrolo[2,1-C][1,4]benzodiazepines as potential anticancer agents and process for the preparation thereof” (Council of Scientific & Industrial Research, priority 2008, dated 2014).

Tested on: duplex-form calf thymus DNA (CT-DNA)
Assay: Thermal denaturation studies with calf thymus DNA
Type: binding
Conditions: [PBD]:[DNA] molar ratio 1:5, CT-DNA 100 μM, ligand 20 μM, pH 7.00; for (ΔTm ° C.) after incubation at 37° C. for 0 h: 0 h incubation at 37° C.; for (ΔTm ° C.) after incubation at 37° C. for 18 h: 18 h incubation at 37° C.
Description: Compounds have been subjected to thermal denaturation studies with duplex-form calf thymus DNA (CT-DNA) using an modification of a reported procedure (Newman, M. S. Carcinog-compr. Surv. 1976, 1, 203; (b) Hecht, S. S.; Loy, M.; Hoffman, Carcinog-compr. Surv. 1976, 1, 325). Working solutions in aqueous buffer (10 mM NaH2PO4/Na2HPO4, 1 mM Na2EDTA, pH 7.00+0.01) containing CT-DNA (100 μm in phosphate) and the PBD (20 μm) have been prepared by addition of concentrated PBD solutions in DMSO to obtain a fixed [PBD]/[DNA] molar ratio of 1:5. The DNA-PBD solutions have been incubated at 37° C. for 0 and 18 h prior to analysis. Samples have been monitored at 260 nm using a Beckman DU-800 spectrophotometer fitted with high performance temperature controller, and heated at 1° C. min^−1 in the 40-110° C. range. DNA helix→coil transition temperatures (Tm) have been obtained from the maxima in the d(A260)/dT derivative plots. Drug-induced alterations in DNA melting behavior are given by: ΔTm=Tm(DNA+PBD)−Tm(DNA alone), where the Tm value for the PBD-free CT-DNA is 69.1±0.01.
The DNA binding activity for these Cinnamido-pyrrolo[2,1-c][1,4]benzodiazepines have been examined by thermal denaturation studies using calf thymus (CT) DNA. […] The data for the compounds 8b&d, 11b&d, 14b&d and 17b&d is included in Table 1 for comparison.

Compound | (ΔTm ° C.) after incubation at 37° C. for 0 h [°C] | (ΔTm ° C.) after incubation at 37° C. for 18 h [°C]
COc1cc(/C=C/C(=O)N2CCOCC2)ccc1OCCCOc1cc2c(cc1OC)C(=O)N1CCC[C@H]1C=N2 [14b, 7-methoxy-8-(3-2-methoxy-4-[(E)-3-morpholino-3-oxo-1-propenylphenoxy]propoxy)-(11aS)-2,3,5,11^a-tetrahydro-5H-pyrrolo[2,1-c][1,4]benzodiazepine-5-one] | 3.0 | 4.2
1,1′-{[(E-3-bis propoxy-3-methoxy phenyl)-1-4-piperzino]-2-propene-1-one}dioxy}bis(11aS)-7-methoxy-1,2,3,11a-tetrahydro-5H-pyrrolo[2,1-c][1,4]benzo diazepine-5-one [17b] | 4.0 | 5.1
COc1cc(/C=C/C(=O)N2CCN(C)CC2)ccc1OCCCCCOc1cc2c(cc1OC)C(=O)N1CCC[C@H]1C=N2 [11d, 7-methoxy-8-(5-2-methoxy-4-[(E)-3-(4-methylpiperazino)-3-oxo-1-propenyl-phenoxy]pentyloxy)-(11aS)-2,3,5,11^a-tetrahydro-5H-pyrrolo[2,1-c][1,4]benzodiazepine-5-one] | 7.9 | 8.8
COc1cc(/C=C/C(=O)N2CCN(C)CC2)ccc1OCCCOc1cc2c(cc1OC)C(=O)N1CCC[C@H]1C=N2 [11b, 7-methoxy-8-(3-2-methoxy-4-[(E)-3-(4-methylpiperazino)-3-oxo-1-propenyl-phenoxy]propoxy)-(11aS)-2,3,5,11^a-tetrahydro-5H-pyrrolo[2,1-c][1,4]benzodiazepine-5-one] | 4.0 | 5.0
1,1′-{[(E-3-bis pentyloxy-3-methoxy phenyl)-1-4-piperzino]-2-propene-1-one]dioxy}bis(11aS)-7-methoxy-1,2,3,11a-tetrahydro-5H-pyrrolo[2,1-c][1,4]benzo diazepine-5-one [17d] | 8.1 | 9.2
COc1cc2c(cc1O)N=CC1CCCN1C2=O (stereo not shown) [DC-81, reference compound] | 0.3 | 0.7
COc1cc(/C=C/C(=O)N2CCN(C(=O)c3cc(OC)c(OC)c(OC)c3)CC2)ccc1OCCCCCOc1cc2c(cc1OC)C(=O)N1CCC[C@H]1C=N2 [8d, 7-methoxy-8-{5-(2-methoxy-4-(E)-3-oxo-3-[4-(3,4,5-trimethoxybenzoyl)piperazino]-1-propenylphenoxy)pentyloxy}-(11aS)-2,3,5,11^a-tetrahydro-5H-pyrrolo[2,1-c][1,4]benzo-diazepine-5-one] | 1.5 | 2.5
COc1cc(/C=C/C(=O)N2CCOCC2)ccc1OCCCCCOc1cc2c(cc1OC)C(=O)N1CCC[C@H]1C=N2 [14d, 7-methoxy-8-(5-2-methoxy-4-[(E)-3-morpholino-3-oxo-1-propenylphenoxy]pentyloxy)-(11aS)-2,3,5,11^a-tetrahydro-5H-pyrrolo[2,1-c][1,4]benzodiazepine-5-one] | 7.1 | 8.2
